# Target: PRKCQ (PKC theta) (Homo sapiens, UniProt Q04759)
# Test: High-throughput kinase assay
# Type: biochemical
# Details: 50 nM; read-out: Percent inhibition of kinase activity in vitro, PRKCQ (PKC theta)
# Protocol: (§1) Screening of Compounds 1-4 against several kinases identified two prominent targets of these compounds as the Aurora A kinase and calcium dependent protein kinase C isoforms α, βI, βII and […] (Tables 1 to 3). IC50s for these two targets were obtained by plotting inhibition levels at 500 nM, 100 nM, 50 nM and 10 nM (FIG. 3). These kinases are directly involved in pathways controlling cell differentiation programs, metastasis signaling, as well as EMT and CSC programming and their overexpression was reported to predict decreased metastasis-free survival.
row,Structure (SMILES),inhibition at 0.05 µM
1,O=c1c2ccccc2[se]n1-c1nc(NC2CCCCC2)c2nc[nH]c2n1 [Compound 1],62%

# Target: AKT1 (PKB alpha) (Homo sapiens, UniProt P31749)
# Test: High-throughput kinase assay
# Type: biochemical
# Details: 100 nM; read-out: Percent inhibition of kinase activity in vitro, AKT1 (PKB alpha)
# Protocol: as §1
row,Structure (SMILES),inhibition at 0.1 µM
1,O=c1c2ccccc2[se]n1-c1nc(NC2CCCCC2)c2nc[nH]c2n1 [Compound 1],4%

# Same assay, conditions: 500 nM; read-out: Percent inhibition of kinase activity in vitro, AKT1 (PKB alpha)
row,Structure (SMILES),inhibition at 0.5 µM
1,O=c1c2ccccc2[se]n1-c1nc(NC2CCCCC2)c2nc[nH]c2n1 [Compound 1],11%

# Target: SRC (Homo sapiens, UniProt P12931)
# Sequence (P12931 whole entry): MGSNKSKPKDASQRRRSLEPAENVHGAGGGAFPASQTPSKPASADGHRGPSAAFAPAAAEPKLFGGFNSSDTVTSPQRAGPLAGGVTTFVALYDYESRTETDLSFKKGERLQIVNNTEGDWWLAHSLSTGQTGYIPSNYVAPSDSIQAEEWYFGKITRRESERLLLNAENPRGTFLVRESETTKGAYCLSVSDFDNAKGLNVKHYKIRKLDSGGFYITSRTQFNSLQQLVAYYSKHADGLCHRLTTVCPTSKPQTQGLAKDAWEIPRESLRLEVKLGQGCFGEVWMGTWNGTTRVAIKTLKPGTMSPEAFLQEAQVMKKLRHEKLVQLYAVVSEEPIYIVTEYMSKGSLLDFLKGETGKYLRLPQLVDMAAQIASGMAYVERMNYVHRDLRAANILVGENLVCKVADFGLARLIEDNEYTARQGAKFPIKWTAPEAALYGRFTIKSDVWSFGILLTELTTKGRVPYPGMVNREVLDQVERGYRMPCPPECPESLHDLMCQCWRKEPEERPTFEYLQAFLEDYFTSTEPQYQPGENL
# Test: High-throughput kinase assay
# Type: biochemical
# Details: 100 nM; read-out: Percent inhibition of kinase activity in vitro, SRC
# Protocol: as §1
row,Structure (SMILES),inhibition at 0.1 µM
1,O=c1c2ccccc2[se]n1-c1nc(NC2CCCCC2)c2nc[nH]c2n1 [Compound 1],1%

# Same assay, conditions: 500 nM; read-out: Percent inhibition of kinase activity in vitro, SRC
row,Structure (SMILES),inhibition at 0.5 µM
1,O=c1c2ccccc2[se]n1-c1nc(NC2CCCCC2)c2nc[nH]c2n1 [Compound 1],5%

# Target: PRKCA (PKC alpha) (Homo sapiens, UniProt P17252)
# Test: High-throughput kinase assay
# Type: biochemical
# Details: 50 nM; read-out: Percent inhibition of kinase activity in vitro, PRKCA (PKC alpha)
# Protocol: as §1
row,Structure (SMILES),inhibition at 0.05 µM
1,O=c1c2ccccc2[se]n1-c1nc(NC2CCCCC2)c2nc[nH]c2n1 [Compound 1],68%

# Same assay, conditions: 100 nM; read-out: Percent inhibition of kinase activity in vitro, PRKCA (PKC alpha)
row,Structure (SMILES),inhibition at 0.1 µM
1,O=c1c2ccccc2[se]n1-c1nc(NC2CCCCC2)c2nc[nH]c2n1 [Compound 1],83%

# Same assay, conditions: 500 nM; read-out: Percent inhibition of kinase activity in vitro, PRKCA (PKC alpha)
row,Structure (SMILES),inhibition at 0.5 µM
1,O=c1c2ccccc2[se]n1-c1nc(NC2CCCCC2)c2nc[nH]c2n1 [Compound 1],98%

# Target: YES1 (Homo sapiens, UniProt P07947)
# Sequence (P07947 whole entry): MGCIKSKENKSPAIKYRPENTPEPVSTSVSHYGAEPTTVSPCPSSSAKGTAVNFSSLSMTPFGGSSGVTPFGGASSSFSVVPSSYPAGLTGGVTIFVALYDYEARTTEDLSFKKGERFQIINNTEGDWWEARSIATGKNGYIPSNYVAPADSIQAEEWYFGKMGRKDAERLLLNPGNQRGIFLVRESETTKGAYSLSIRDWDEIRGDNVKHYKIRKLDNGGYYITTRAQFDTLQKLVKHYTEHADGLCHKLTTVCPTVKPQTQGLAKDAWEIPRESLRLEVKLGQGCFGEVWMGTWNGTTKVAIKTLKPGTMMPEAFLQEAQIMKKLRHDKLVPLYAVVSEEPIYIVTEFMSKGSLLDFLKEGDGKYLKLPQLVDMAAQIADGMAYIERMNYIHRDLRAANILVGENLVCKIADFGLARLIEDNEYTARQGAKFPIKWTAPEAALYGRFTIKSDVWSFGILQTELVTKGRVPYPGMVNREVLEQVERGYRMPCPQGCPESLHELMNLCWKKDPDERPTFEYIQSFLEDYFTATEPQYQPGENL
# Test: High-throughput kinase assay
# Type: biochemical
# Details: 100 nM; read-out: Percent inhibition of kinase activity in vitro, YES1
# Protocol: as §1
row,Structure (SMILES),inhibition at 0.1 µM
1,O=c1c2ccccc2[se]n1-c1nc(NC2CCCCC2)c2nc[nH]c2n1 [Compound 1],22%

# Same assay, conditions: 500 nM; read-out: Percent inhibition of kinase activity in vitro, YES1
row,Structure (SMILES),inhibition at 0.5 µM
1,O=c1c2ccccc2[se]n1-c1nc(NC2CCCCC2)c2nc[nH]c2n1 [Compound 1],47%

# Target: RET (Homo sapiens, UniProt P07949)
# Sequence (P07949 29-1114): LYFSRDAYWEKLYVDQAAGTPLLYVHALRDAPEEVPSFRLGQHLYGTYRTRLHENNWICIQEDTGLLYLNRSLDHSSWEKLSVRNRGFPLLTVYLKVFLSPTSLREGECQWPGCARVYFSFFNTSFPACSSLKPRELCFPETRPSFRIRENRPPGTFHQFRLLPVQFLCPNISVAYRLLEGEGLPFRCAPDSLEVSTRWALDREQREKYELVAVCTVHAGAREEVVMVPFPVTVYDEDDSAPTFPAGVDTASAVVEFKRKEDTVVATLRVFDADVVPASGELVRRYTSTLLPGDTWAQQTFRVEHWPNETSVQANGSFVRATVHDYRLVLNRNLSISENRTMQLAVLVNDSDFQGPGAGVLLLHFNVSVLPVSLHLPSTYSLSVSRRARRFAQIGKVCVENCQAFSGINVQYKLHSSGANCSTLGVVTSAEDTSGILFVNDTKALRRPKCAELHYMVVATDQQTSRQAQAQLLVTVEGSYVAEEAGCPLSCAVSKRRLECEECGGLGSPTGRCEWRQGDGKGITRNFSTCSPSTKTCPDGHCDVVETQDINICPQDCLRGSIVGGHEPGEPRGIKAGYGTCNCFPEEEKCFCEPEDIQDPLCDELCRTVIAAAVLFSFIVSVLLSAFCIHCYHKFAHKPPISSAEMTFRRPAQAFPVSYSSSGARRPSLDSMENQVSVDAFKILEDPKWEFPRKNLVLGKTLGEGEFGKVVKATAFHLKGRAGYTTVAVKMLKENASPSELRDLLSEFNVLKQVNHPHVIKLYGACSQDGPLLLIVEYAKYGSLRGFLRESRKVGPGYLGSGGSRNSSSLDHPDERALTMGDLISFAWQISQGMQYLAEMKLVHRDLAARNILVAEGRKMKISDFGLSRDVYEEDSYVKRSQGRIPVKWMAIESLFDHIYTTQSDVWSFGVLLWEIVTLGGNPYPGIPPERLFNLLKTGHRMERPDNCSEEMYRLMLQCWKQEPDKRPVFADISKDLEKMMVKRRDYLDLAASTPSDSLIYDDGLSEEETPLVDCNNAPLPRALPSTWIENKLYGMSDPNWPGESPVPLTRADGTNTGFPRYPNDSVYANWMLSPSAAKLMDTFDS
# Test: High-throughput kinase assay
# Type: biochemical
# Details: 100 nM; read-out: Percent inhibition of kinase activity in vitro, RET
# Protocol: as §1
row,Structure (SMILES),inhibition at 0.1 µM
1,O=c1c2ccccc2[se]n1-c1nc(NC2CCCCC2)c2nc[nH]c2n1 [Compound 1],5%

# Same assay, conditions: 500 nM; read-out: Percent inhibition of kinase activity in vitro, RET
row,Structure (SMILES),inhibition at 0.5 µM
1,O=c1c2ccccc2[se]n1-c1nc(NC2CCCCC2)c2nc[nH]c2n1 [Compound 1],23%

# Target: MET (cMet) (Homo sapiens, UniProt P08581)
# Test: High-throughput kinase assay
# Type: biochemical
# Details: 100 nM; read-out: Percent inhibition of kinase activity in vitro, MET (cMet)
# Protocol: as §1
row,Structure (SMILES),inhibition at 0.1 µM
1,O=c1c2ccccc2[se]n1-c1nc(NC2CCCCC2)c2nc[nH]c2n1 [Compound 1],2%

# Same assay, conditions: 500 nM; read-out: Percent inhibition of kinase activity in vitro, MET (cMet)
row,Structure (SMILES),inhibition at 0.5 µM
1,O=c1c2ccccc2[se]n1-c1nc(NC2CCCCC2)c2nc[nH]c2n1 [Compound 1],10%

# Target: PIK3CA/PIK3R1 (Homo sapiens, UniProt P42336)
# Test: High-throughput kinase assay
# Type: biochemical
# Details: 100 nM; read-out: Percent inhibition of kinase activity in vitro, PIK3CA/PIK3R1
# Protocol: as §1
row,Structure (SMILES),inhibition at 0.1 µM
1,O=c1c2ccccc2[se]n1-c1nc(NC2CCCCC2)c2nc[nH]c2n1 [Compound 1],0%

# Same assay, conditions: 500 nM; read-out: Percent inhibition of kinase activity in vitro, PIK3CA/PIK3R1
row,Structure (SMILES),inhibition at 0.5 µM
1,O=c1c2ccccc2[se]n1-c1nc(NC2CCCCC2)c2nc[nH]c2n1 [Compound 1],61%

# Target: RAF1 (cRAF) Y340D Y341D (Homo sapiens, UniProt P04049, Y340D/Y341D)
# Test: High-throughput kinase assay
# Type: biochemical
# Details: 500 nM; read-out: Percent inhibition of kinase activity in vitro, RAF1 (cRAF) Y340D Y341D
# Protocol: as §1
row,Structure (SMILES),inhibition at 0.5 µM
1,O=c1c2ccccc2[se]n1-c1nc(NC2CCCCC2)c2nc[nH]c2n1 [Compound 1],4%

# Target: IGF1R (Homo sapiens, UniProt P08069)
# Test: High-throughput kinase assay
# Type: biochemical
# Details: 100 nM; read-out: Percent inhibition of kinase activity in vitro, IGF1R
# Protocol: as §1
row,Structure (SMILES),inhibition at 0.1 µM
1,O=c1c2ccccc2[se]n1-c1nc(NC2CCCCC2)c2nc[nH]c2n1 [Compound 1],0%

# Same assay, conditions: 500 nM; read-out: Percent inhibition of kinase activity in vitro, IGF1R
row,Structure (SMILES),inhibition at 0.5 µM
1,O=c1c2ccccc2[se]n1-c1nc(NC2CCCCC2)c2nc[nH]c2n1 [Compound 1],12%

# Target: FGFR1 (Homo sapiens, UniProt P11362)
# Test: High-throughput kinase assay
# Type: biochemical
# Details: 100 nM; read-out: Percent inhibition of kinase activity in vitro, FGFR1
# Protocol: as §1
row,Structure (SMILES),inhibition at 0.1 µM
1,O=c1c2ccccc2[se]n1-c1nc(NC2CCCCC2)c2nc[nH]c2n1 [Compound 1],0%

# Same assay, conditions: 500 nM; read-out: Percent inhibition of kinase activity in vitro, FGFR1
row,Structure (SMILES),inhibition at 0.5 µM
1,O=c1c2ccccc2[se]n1-c1nc(NC2CCCCC2)c2nc[nH]c2n1 [Compound 1],2%

# Target: PTK2 (FAK) (Homo sapiens, UniProt Q05397)
# Test: High-throughput kinase assay
# Type: biochemical
# Details: 100 nM; read-out: Percent inhibition of kinase activity in vitro, PTK2 (FAK)
# Protocol: as §1
row,Structure (SMILES),inhibition at 0.1 µM
1,O=c1c2ccccc2[se]n1-c1nc(NC2CCCCC2)c2nc[nH]c2n1 [Compound 1],5%

# Same assay, conditions: 500 nM; read-out: Percent inhibition of kinase activity in vitro, PTK2 (FAK)
row,Structure (SMILES),inhibition at 0.5 µM
1,O=c1c2ccccc2[se]n1-c1nc(NC2CCCCC2)c2nc[nH]c2n1 [Compound 1],7%

# Target: T1, AURKA (Aurora A) (Homo sapiens, UniProt O14965)
# T1 sequence (O14965 1-403): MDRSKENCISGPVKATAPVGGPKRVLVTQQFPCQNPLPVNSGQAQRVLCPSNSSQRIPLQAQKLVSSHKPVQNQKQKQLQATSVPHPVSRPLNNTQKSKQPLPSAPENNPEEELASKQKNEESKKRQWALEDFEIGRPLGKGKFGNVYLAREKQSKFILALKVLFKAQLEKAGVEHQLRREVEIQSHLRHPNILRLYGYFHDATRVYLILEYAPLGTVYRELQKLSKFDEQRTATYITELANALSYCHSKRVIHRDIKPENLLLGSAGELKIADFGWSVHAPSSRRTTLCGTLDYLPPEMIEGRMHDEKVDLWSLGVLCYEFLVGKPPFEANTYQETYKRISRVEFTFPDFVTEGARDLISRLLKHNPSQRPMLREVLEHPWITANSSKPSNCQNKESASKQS
# Test: High-throughput kinase assay
# Type: biochemical
# Details: 100 nM; read-out: Percent inhibition of kinase activity in vitro, AURKA (Aurora A)
# Protocol: as §1
row,Structure (SMILES),inhibition at 0.1 µM
1,O=c1c2ccccc2[se]n1-c1nc(NC2CCCCC2)c2nc[nH]c2n1 [Compound 1],89%

# Same assay, conditions: 500 nM; read-out: Percent inhibition of kinase activity in vitro, AURKA (Aurora A)
row,Structure (SMILES),inhibition at 0.5 µM
1,O=c1c2ccccc2[se]n1-c1nc(NC2CCCCC2)c2nc[nH]c2n1 [Compound 1],94%

# Target: FRAP1 (mTOR) (Homo sapiens, UniProt P42345)
# Test: High-throughput kinase assay
# Type: biochemical
# Details: 100 nM; read-out: Percent inhibition of kinase activity in vitro, FRAP1 (mTOR)
# Protocol: as §1
row,Structure (SMILES),inhibition at 0.1 µM
1,O=c1c2ccccc2[se]n1-c1nc(NC2CCCCC2)c2nc[nH]c2n1 [Compound 1],1%

# Same assay, conditions: 500 nM; read-out: Percent inhibition of kinase activity in vitro, FRAP1 (mTOR)
row,Structure (SMILES),inhibition at 0.5 µM
1,O=c1c2ccccc2[se]n1-c1nc(NC2CCCCC2)c2nc[nH]c2n1 [Compound 1],2%

# Target: FLT1 (VEGFR1) (Homo sapiens, UniProt P17948)
# Sequence (P17948 27-1338): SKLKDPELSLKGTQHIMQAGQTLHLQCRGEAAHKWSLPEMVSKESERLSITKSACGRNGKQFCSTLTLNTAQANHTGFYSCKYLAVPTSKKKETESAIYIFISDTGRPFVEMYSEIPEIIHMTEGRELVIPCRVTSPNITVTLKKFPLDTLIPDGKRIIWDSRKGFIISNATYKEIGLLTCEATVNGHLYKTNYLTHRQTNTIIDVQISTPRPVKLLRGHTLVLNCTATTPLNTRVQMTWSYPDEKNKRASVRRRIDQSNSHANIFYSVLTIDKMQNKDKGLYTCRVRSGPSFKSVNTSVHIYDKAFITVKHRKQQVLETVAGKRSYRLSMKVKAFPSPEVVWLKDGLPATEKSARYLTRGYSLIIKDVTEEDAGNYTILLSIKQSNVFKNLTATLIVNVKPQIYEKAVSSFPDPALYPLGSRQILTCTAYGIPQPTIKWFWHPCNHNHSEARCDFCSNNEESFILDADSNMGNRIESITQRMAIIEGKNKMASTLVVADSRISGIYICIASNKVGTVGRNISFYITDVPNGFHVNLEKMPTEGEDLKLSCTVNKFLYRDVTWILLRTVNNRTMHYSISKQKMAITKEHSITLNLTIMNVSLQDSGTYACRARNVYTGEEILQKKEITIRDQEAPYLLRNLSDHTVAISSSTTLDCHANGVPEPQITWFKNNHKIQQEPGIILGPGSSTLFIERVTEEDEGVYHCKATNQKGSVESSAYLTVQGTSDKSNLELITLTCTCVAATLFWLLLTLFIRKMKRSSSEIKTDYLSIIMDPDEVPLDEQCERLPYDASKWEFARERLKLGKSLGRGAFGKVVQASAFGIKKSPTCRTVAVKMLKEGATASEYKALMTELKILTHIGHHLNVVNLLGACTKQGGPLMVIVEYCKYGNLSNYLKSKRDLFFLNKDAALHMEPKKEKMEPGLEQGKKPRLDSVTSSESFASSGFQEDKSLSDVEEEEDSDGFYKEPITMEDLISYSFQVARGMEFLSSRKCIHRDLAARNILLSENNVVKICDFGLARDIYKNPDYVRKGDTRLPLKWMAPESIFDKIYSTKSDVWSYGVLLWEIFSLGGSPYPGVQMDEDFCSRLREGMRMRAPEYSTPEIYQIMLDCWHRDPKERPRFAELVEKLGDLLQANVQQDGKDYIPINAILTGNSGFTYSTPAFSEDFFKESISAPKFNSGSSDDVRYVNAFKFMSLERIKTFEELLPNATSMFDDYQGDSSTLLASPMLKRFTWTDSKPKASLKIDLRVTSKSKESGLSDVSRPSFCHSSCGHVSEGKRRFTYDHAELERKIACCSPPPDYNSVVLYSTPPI
# Test: High-throughput kinase assay
# Type: biochemical
# Details: 100 nM; read-out: Percent inhibition of kinase activity in vitro, FLT1 (VEGFR1)
# Protocol: as §1
row,Structure (SMILES),inhibition at 0.1 µM
1,O=c1c2ccccc2[se]n1-c1nc(NC2CCCCC2)c2nc[nH]c2n1 [Compound 1],0%

# Same assay, conditions: 500 nM; read-out: Percent inhibition of kinase activity in vitro, FLT1 (VEGFR1)
row,Structure (SMILES),inhibition at 0.5 µM
1,O=c1c2ccccc2[se]n1-c1nc(NC2CCCCC2)c2nc[nH]c2n1 [Compound 1],1%

# Target: LCK (Homo sapiens, UniProt P06239)
# Sequence (P06239 whole entry): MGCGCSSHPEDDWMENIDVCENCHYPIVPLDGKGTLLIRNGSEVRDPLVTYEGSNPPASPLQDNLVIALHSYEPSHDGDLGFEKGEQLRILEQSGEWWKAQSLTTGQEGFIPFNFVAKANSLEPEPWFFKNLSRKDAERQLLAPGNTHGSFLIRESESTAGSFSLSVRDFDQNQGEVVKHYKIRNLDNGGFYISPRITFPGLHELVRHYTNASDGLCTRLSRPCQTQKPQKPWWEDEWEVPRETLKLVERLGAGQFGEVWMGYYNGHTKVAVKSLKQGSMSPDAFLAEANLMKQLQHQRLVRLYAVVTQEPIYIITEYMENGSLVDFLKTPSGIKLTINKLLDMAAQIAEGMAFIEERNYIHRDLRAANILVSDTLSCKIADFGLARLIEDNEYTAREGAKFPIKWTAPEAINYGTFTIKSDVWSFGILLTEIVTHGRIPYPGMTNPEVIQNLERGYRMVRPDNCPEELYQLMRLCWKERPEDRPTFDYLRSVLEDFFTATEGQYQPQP
# Test: High-throughput kinase assay
# Type: biochemical
# Details: 100 nM; read-out: Percent inhibition of kinase activity in vitro, LCK
# Protocol: as §1
row,Structure (SMILES),inhibition at 0.1 µM
1,O=c1c2ccccc2[se]n1-c1nc(NC2CCCCC2)c2nc[nH]c2n1 [Compound 1],7%

# Same assay, conditions: 500 nM; read-out: Percent inhibition of kinase activity in vitro, LCK
row,Structure (SMILES),inhibition at 0.5 µM
1,O=c1c2ccccc2[se]n1-c1nc(NC2CCCCC2)c2nc[nH]c2n1 [Compound 1],14%

# Target: EEF2K (Homo sapiens, UniProt O00418)
# Test: High-throughput kinase assay
# Type: biochemical
# Details: 100 nM; read-out: Percent inhibition of kinase activity in vitro, EEF2K
# Protocol: as §1
row,Structure (SMILES),inhibition at 0.1 µM
1,O=c1c2ccccc2[se]n1-c1nc(NC2CCCCC2)c2nc[nH]c2n1 [Compound 1],7%

# Same assay, conditions: 500 nM; read-out: Percent inhibition of kinase activity in vitro, EEF2K
row,Structure (SMILES),inhibition at 0.5 µM
1,O=c1c2ccccc2[se]n1-c1nc(NC2CCCCC2)c2nc[nH]c2n1 [Compound 1],11%

# Target: PRKCD (PKC delta) (Homo sapiens, UniProt Q05655)
# Test: High-throughput kinase assay
# Type: biochemical
# Details: 50 nM; read-out: Percent inhibition of kinase activity in vitro, PRKCD (PKC delta)
# Protocol: as §1
row,Structure (SMILES),inhibition at 0.05 µM
1,O=c1c2ccccc2[se]n1-c1nc(NC2CCCCC2)c2nc[nH]c2n1 [Compound 1],0%

# Target: JAK2 (Homo sapiens, UniProt O60674)
# Test: High-throughput kinase assay
# Type: biochemical
# Details: 100 nM; read-out: Percent inhibition of kinase activity in vitro, JAK2
# Protocol: as §1
row,Structure (SMILES),inhibition at 0.1 µM
1,O=c1c2ccccc2[se]n1-c1nc(NC2CCCCC2)c2nc[nH]c2n1 [Compound 1],10%

# Same assay, conditions: 500 nM; read-out: Percent inhibition of kinase activity in vitro, JAK2
row,Structure (SMILES),inhibition at 0.5 µM
1,O=c1c2ccccc2[se]n1-c1nc(NC2CCCCC2)c2nc[nH]c2n1 [Compound 1],10%

# Reference: patent publication US10711002B2, “Purine compounds and method for the treatment of cancer” (THE ROYAL INSTITUTION FOR THE ADVANCEMENT OF …, priority 2016, dated 2020)
